Source: patent US20260262643A1, “HERBICIDAL BENZOXAZINES” (FMC CORPORATION, priority 2022, published 2026)

How the values were obtained:
green foxtail [1] = test: Test C postemergence; type: in vivo, Setaria viridis; settings: 10 days, 0 to 100 scale (0 no effect, 100 complete control)
Summary of the method: (§1)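 Seeds sown in loam soil–sand blend received a directed preemergence soil spray of test chemical in non-phytotoxic solvent with surfactant; postemergence plants (2–10 cm, one- to two-leaf stage) were sprayed with the same formulation. Greenhouse-held 10 days, then visually rated for injury versus untreated controls, 0 (no effect) to 100 (complete control).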

green foxtail [2] = test: Test C preemergence; type: in vivo, Setaria viridis; settings: for Foxtail, Green plant response rating: 500 g ai/ha, preemergence, 0 to 100 scale (0 no effect, 100 complete control); for Plant response rating, Foxtail, Green: Preemergence, 125 g ai/ha, 0 to 100 scale, 0 no effect, 100 complete control
Summary of the method: as §1

ragweed [3] = test: Test C preemergence; type: in vivo, Ambrosia artemisiifolia; settings: for Ragweed plant response rating: 500 g ai/ha, preemergence, 0 to 100 scale (0 no effect, 100 complete control); for Plant response rating, Ragweed: Preemergence, 125 g ai/ha, 0 to 100 scale, 0 no effect, 100 complete control
Summary of the method: as §1

oat, wild [4] = test: Test C postemergence; type: in vivo, Avena fatua; settings: 10 days, 0 to 100 scale (0 no effect, 100 complete control)
Summary of the method: as §1

corn [5] = test: Test C preemergence; type: in vivo, Zea mays; settings: for Corn plant response rating: 500 g ai/ha, preemergence, 0 to 100 scale (0 no effect, 100 complete control); for Plant response rating, Corn: Preemergence, 125 g ai/ha, 0 to 100 scale, 0 no effect, 100 complete control
Summary of the method: as §1

blackgrass [6] = test: Test C preemergence; type: in vivo, Alopecurus myosuroides; settings: for Blackgrass plant response rating: 500 g ai/ha, preemergence, 0 to 100 scale (0 no effect, 100 complete control); for Plant response rating, Blackgrass: Preemergence, 125 g ai/ha, 0 to 100 scale, 0 no effect, 100 complete control
Summary of the method: as §1

corn [7] = test: Test C postemergence; type: in vivo, Zea mays; settings: 10 days, 0 to 100 scale (0 no effect, 100 complete control)
Summary of the method: as §1

ragweed [8] = test: Test C postemergence; type: in vivo, Ambrosia artemisiifolia; settings: 10 days, 0 to 100 scale (0 no effect, 100 complete control)
Summary of the method: as §1

rice = test: Test D flooded paddy test; type: in vivo, Oryza sativa; settings: 250 g ai/ha, applied to paddy water, visual rating after 13 to 14 days, scale 0 to 100 (0 no effect, 100 complete control)
Summary of the method: (§2)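 Post-flood water application at the 2-leaf stage; 3 cm flood depth kept constant; visual control rating 0–100 after 13–14 days greenhouse growth.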

soybean [9] = test: Test C preemergence; type: in vivo, Glycine max; settings: for Soybean plant response rating: 500 g ai/ha, preemergence, 0 to 100 scale (0 no effect, 100 complete control); for Plant response rating, Soybean: Preemergence, 125 g ai/ha, 0 to 100 scale, 0 no effect, 100 complete control
Summary of the method: as §1

ryegrass, Italian [10] = test: Test C postemergence; type: in vivo, Lolium multiflorum; settings: 10 days, 0 to 100 scale (0 no effect, 100 complete control)
Summary of the method: as §1

horseweed = test: Test C postemergence; type: in vivo, Erigeron canadensis; settings: 10 days, 0 to 100 scale (0 no effect, 100 complete control)
Summary of the method: as §1

wheat [11] = test: Test C postemergence; type: in vivo, Triticum aestivum; settings: 10 days, 0 to 100 scale (0 no effect, 100 complete control)
Summary of the method: as §1

ducksalad = test: Test D flooded paddy test; type: in vivo, Heteranthera limosa; settings: 250 g ai/ha, applied to paddy water, visual rating after 13 to 14 days, scale 0 to 100 (0 no effect, 100 complete control)
Summary of the method: as §2

galium = test: Test C postemergence; type: in vivo, Galium aparine; settings: 10 days, 0 to 100 scale (0 no effect, 100 complete control)
Summary of the method: as §1

pigweed, palmer [12] = test: Test C postemergence; type: in vivo, Amaranthus palmeri; settings: 10 days, 0 to 100 scale (0 no effect, 100 complete control)
Summary of the method: as §1

oat, wild [13] = test: Test C preemergence; type: in vivo, Avena fatua; settings: for Oat, Wild plant response rating: 500 g ai/ha, preemergence, 0 to 100 scale (0 no effect, 100 complete control); for Plant response rating, Oat, Wild: Preemergence, 125 g ai/ha, 0 to 100 scale, 0 no effect, 100 complete control
Summary of the method: as §1

sedge, umbrella = test: Test D flooded paddy test; type: in vivo, Cyperus difformis; settings: 250 g ai/ha, applied to paddy water, visual rating after 13 to 14 days, scale 0 to 100 (0 no effect, 100 complete control)
Summary of the method: as §2

kochia [14] = test: Test C preemergence; type: in vivo, Bassia scoparia; settings: for Kochia plant response rating: 500 g ai/ha, preemergence, 0 to 100 scale (0 no effect, 100 complete control); for Plant response rating, Kochia: Preemergence, 125 g ai/ha, 0 to 100 scale, 0 no effect, 100 complete control
Summary of the method: as §1

barnyardgrass [15] = test: Test D flooded paddy test; type: in vivo, Echinochloa crus-galli; settings: 250 g ai/ha, applied to paddy water, visual rating after 13 to 14 days, scale 0 to 100 (0 no effect, 100 complete control)
Summary of the method: as §2

soybean [16] = test: Test C postemergence; type: in vivo, Glycine max; settings: 10 days, 0 to 100 scale (0 no effect, 100 complete control)
Summary of the method: as §1

pigweed, palmer [17] = test: Test C preemergence; type: in vivo, Amaranthus palmeri; settings: for Pigweed, Palmer plant response rating: 500 g ai/ha, preemergence, 0 to 100 scale (0 no effect, 100 complete control)
Summary of the method: as §1

barnyardgrass [18] = test: Test C preemergence; type: in vivo, Echinochloa crusgalli; settings: for Barnyardgrass plant response rating: 500 g ai/ha, preemergence, 0 to 100 scale (0 no effect, 100 complete control); for Plant response rating, Barnyardgrass: Preemergence, 125 g ai/ha, 0 to 100 scale, 0 no effect, 100 complete control
Summary of the method: as §1

kochia [19] = test: Test C postemergence; type: in vivo, Bassia scoparia; settings: 10 days, 0 to 100 scale (0 no effect, 100 complete control)
Summary of the method: as §1

wheat [20] = test: Test C preemergence; type: in vivo, Triticum aestivum; settings: for Wheat plant response rating: 500 g ai/ha, preemergence, 0 to 100 scale (0 no effect, 100 complete control); for Plant response rating, Wheat: Preemergence, 125 g ai/ha, 0 to 100 scale, 0 no effect, 100 complete control
Summary of the method: as §1

ryegrass, Italian [21] = test: Test C preemergence; type: in vivo, Lolium multiflorum; settings: for Ryegrass, Italian plant response rating: 500 g ai/ha, preemergence, 0 to 100 scale (0 no effect, 100 complete control)
Summary of the method: as §1

barnyardgrass [22] = test: Test C postemergence; type: in vivo, Echinochloa crusgalli; settings: 10 days, 0 to 100 scale (0 no effect, 100 complete control)
Summary of the method: as §1

blackgrass [23] = test: Test C postemergence; type: in vivo, Alopecurus myosuroides; settings: 10 days, 0 to 100 scale (0 no effect, 100 complete control)
Summary of the method: as §1

[24] = Preemergence, 125 g ai/ha, 0 to 100 scale, 0 no effect, 100 complete control

Cc1ncc(-c2cccc(C(=O)N3C[C@H](C)Oc4c(Cl)cccc43)c2)o1 [Compound 352]
Plant response rating, Foxtail, Green (green foxtail [1]; 500 g ai/ha, postemergence): 10
Plant response rating, Foxtail, Green (green foxtail [1]; Postemergence, 125 g ai/ha): 20
Foxtail, Green plant response rating (green foxtail [2]): 40
Plant response rating, Foxtail, Green (green foxtail [2]): 0
Ragweed plant response rating (ragweed [3]): 0
Plant response rating, Ragweed (ragweed [3]): 40
Plant response rating, Oat, Wild (oat, wild [4]; 500 g ai/ha, postemergence): 0
Plant response rating, Oat, Wild (oat, wild [4]; Postemergence, 125 g ai/ha): 0
Corn plant response rating (corn [5]): 0
Plant response rating, Corn (corn [5]): 0
Blackgrass plant response rating (blackgrass [6]): 0
Plant response rating, Blackgrass (blackgrass [6]): 0
Plant response rating, Corn (corn [7]; 500 g ai/ha, postemergence): 0
Plant response rating, Corn (corn [7]; Postemergence, 125 g ai/ha): 0
Plant response rating, Ragweed (ragweed [8]; 500 g ai/ha, postemergence): 20
Plant response rating, Ragweed (ragweed [8]; Postemergence, 125 g ai/ha): 20
Plant response rating, Rice (Flood) (rice): 0
Soybean plant response rating (soybean [9]): 0
Plant response rating, Soybean (soybean [9]): 0
Plant response rating, Ryegrass, Italian (ryegrass, Italian [10]; 500 g ai/ha, postemergence): 10
Plant response rating, Ryegrass, Italian (ryegrass, Italian [10]; Postemergence, 125 g ai/ha): 10
Plant response rating, Horseweed (horseweed; 500 g ai/ha, postemergence): 10
Plant response rating, Horseweed (horseweed; Postemergence, 125 g ai/ha): 0
Plant response rating, Wheat (wheat [11]; 500 g ai/ha, postemergence): 10
Plant response rating, Wheat (wheat [11]; Postemergence, 125 g ai/ha): 10
Plant response rating, Ducksalad (Flood) (ducksalad): 0
Plant response rating, Galium (galium; 500 g ai/ha, postemergence): 50
Plant response rating, Galium (galium; Postemergence, 125 g ai/ha): 60
Plant response rating, Pigweed, Palmer (pigweed, palmer [12]; 500 g ai/ha, postemergence): 20
Oat, Wild plant response rating (oat, wild [13]): 0
Plant response rating, Oat, Wild (oat, wild [13]): 0
Plant response rating, Sedge, Umbrella (Flood) (sedge, umbrella): 0
Kochia plant response rating (kochia [14]): 0
Plant response rating, Kochia (kochia [14]): 0
Plant response rating, Barnyardgrass (Flood) (barnyardgrass [15]): 0
Plant response rating, Soybean (soybean [16]; 500 g ai/ha, postemergence): 90
Plant response rating, Soybean (soybean [16]; Postemergence, 125 g ai/ha): 80
Pigweed, Palmer plant response rating (pigweed, palmer [17]): 10
Barnyardgrass plant response rating (barnyardgrass [18]): 0
Plant response rating, Barnyardgrass (barnyardgrass [18]): 0
Plant response rating, Kochia (kochia [19]; 500 g ai/ha, postemergence): 50
Plant response rating, Kochia (kochia [19]; Postemergence, 125 g ai/ha): 40
Wheat plant response rating (wheat [20]): 0
Plant response rating, Wheat (wheat [20]): 0
Ryegrass, Italian plant response rating (ryegrass, Italian [21]): 40
Plant response rating, Barnyardgrass (barnyardgrass [22]; 500 g ai/ha, postemergence): 10
Plant response rating, Barnyardgrass (barnyardgrass [22]; Postemergence, 125 g ai/ha): 10
Plant response rating, Blackgrass (blackgrass [23]; 500 g ai/ha, postemergence): 0
Plant response rating, Blackgrass (blackgrass [23]; Postemergence, 125 g ai/ha): 0

CCOC[C@H]1CN(C(=O)c2cc(-n3cnc(CC)n3)ccc2C)c2cccc(Cl)c2O1 [Compound 412]
Plant response rating, Foxtail, Green (green foxtail [1]; 500 g ai/ha, postemergence): 90
Plant response rating, Foxtail, Green (green foxtail [1]; Postemergence, 125 g ai/ha): 80
Foxtail, Green plant response rating (green foxtail [2]): 100
Plant response rating, Foxtail, Green (green foxtail [2]): 100
Ragweed plant response rating (ragweed [3]): 100
Plant response rating, Ragweed (ragweed [3]): 50
Plant response rating, Oat, Wild (oat, wild [4]; 500 g ai/ha, postemergence): 50
Plant response rating, Oat, Wild (oat, wild [4]; Postemergence, 125 g ai/ha): 20
Corn plant response rating (corn [5]): 30
Plant response rating, Corn (corn [5]): 0
Blackgrass plant response rating (blackgrass [6]): 90
Plant response rating, Blackgrass (blackgrass [6]): 50
Plant response rating, Corn (corn [7]; 500 g ai/ha, postemergence): 20
Plant response rating, Corn (corn [7]; Postemergence, 125 g ai/ha): 20
Plant response rating, Ragweed (ragweed [8]; Postemergence, 125 g ai/ha): 90
Plant response rating, Rice (Flood) (rice): 10
Soybean plant response rating (soybean [9]): 90
Plant response rating, Soybean (soybean [9]): 60
Plant response rating, Ryegrass, Italian (ryegrass, Italian [10]; Postemergence, 125 g ai/ha): 70
Plant response rating, Horseweed (horseweed; 500 g ai/ha, postemergence): 30
Plant response rating, Horseweed (horseweed; Postemergence, 125 g ai/ha): 20
Plant response rating, Wheat (wheat [11]; Postemergence, 125 g ai/ha): 20
Plant response rating, Ducksalad (Flood) (ducksalad): 75
Plant response rating, Galium (galium; 500 g ai/ha, postemergence): 100
Plant response rating, Galium (galium; Postemergence, 125 g ai/ha): 100
Plant response rating, Pigweed, Palmer (pigweed, palmer [12]; 500 g ai/ha, postemergence): 90
Plant response rating, Pigweed, Palmer (pigweed, palmer [12]; Postemergence, 125 g ai/ha): 80
Oat, Wild plant response rating (oat, wild [13]): 0
Plant response rating, Oat, Wild (oat, wild [13]): 0
Plant response rating, Sedge, Umbrella (Flood) (sedge, umbrella): 90
Kochia plant response rating (kochia [14]): 80
Plant response rating, Kochia (kochia [14]): 30
Plant response rating, Barnyardgrass (Flood) (barnyardgrass [15]): 25
Plant response rating, Soybean (soybean [16]; Postemergence, 125 g ai/ha): 100
Pigweed, Palmer plant response rating (pigweed, palmer [17]): 100
Plant response rating, Pigweed, Palmer (pigweed, palmer [17]; [24]): 100
Barnyardgrass plant response rating (barnyardgrass [18]): 80
Plant response rating, Barnyardgrass (barnyardgrass [18]): 60
Plant response rating, Kochia (kochia [19]; 500 g ai/ha, postemergence): 90
Plant response rating, Kochia (kochia [19]; Postemergence, 125 g ai/ha): 80
Wheat plant response rating (wheat [20]): 30
Plant response rating, Wheat (wheat [20]): 30
Ryegrass, Italian plant response rating (ryegrass, Italian [21]): 90
Plant response rating, Ryegrass, Italian (ryegrass, Italian [21]; [24]): 80
Plant response rating, Barnyardgrass (barnyardgrass [22]; 500 g ai/ha, postemergence): 80
Plant response rating, Barnyardgrass (barnyardgrass [22]; Postemergence, 125 g ai/ha): 40
Plant response rating, Blackgrass (blackgrass [23]; 500 g ai/ha, postemergence): 90
Plant response rating, Blackgrass (blackgrass [23]; Postemergence, 125 g ai/ha): 60
